Results as given in patent publication US5457106A, “Pyridine derivatives, their production and use” (Takeda Chemical Industries, Ltd., priority 1991, dated 1995).
Where a name gives a salt, the structure may show the parent alone.

Legend:
[1] = tested on: brewer's yeast induced pyrexia; experiment: Antipyretic activity (brewer's yeast induced pyrexia); type: in vivo, rat (DS line); conditions: orally; for Antipyretic activity, .increment. °C.: at peak time
Summary of the method: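 Male DS rats (7 weeks, 200-240 g) made febrile by s.c. 15% brewer's yeast 18 h before dosing; only animals at ≥38.5° C used. Compound given orally versus solvent control, with rectal temperature taken by thermistor hourly for 5 h post-dose.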

[2] = tested on: ART (antigen-responding T-cell); experiment: In vitro ART (antigen-responding T-cell) proliferation test; type: cell-based, Lewis rat; conditions: Rattus norvegicus, T-cell, read-out: % Inhibition of ART growth
[3] = tested on: Mouse phenylquinone writhing; experiment: Mouse phenylquinone writhing inhibitory activity; type: in vivo, mouse (Slc: ICR); conditions: Mus musculus, po, 20 min, 50 mg/kg, orally; read-out: Inhibitory percentage (phenylquinone writhing)
Summary of the method: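 Male ICR mice (4 weeks, 17–24 g) dosed orally with compound suspended in 5% gum arabic. After 30 min, 0.02% phenylquinone (0.1 ml/10 g) given i.p.; writhing and stretching responses counted over 20 min.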

cyclooxygenase = biological target: T1, cyclooxygenase (Rattus norvegicus, UniProt Q63921); experiment: Cyclooxygenase inhibitory activity (HHT formation from arachidonic acid in rat platelet-rich plasma); type: cell-based, rat (Jcl:wistar)
T1 construct: from tissue; host or cells: platelets in platelet-rich plasma from rat abdominal aorta blood (Jcl:wistar, male)
T1 sequence (Q63921 27-602): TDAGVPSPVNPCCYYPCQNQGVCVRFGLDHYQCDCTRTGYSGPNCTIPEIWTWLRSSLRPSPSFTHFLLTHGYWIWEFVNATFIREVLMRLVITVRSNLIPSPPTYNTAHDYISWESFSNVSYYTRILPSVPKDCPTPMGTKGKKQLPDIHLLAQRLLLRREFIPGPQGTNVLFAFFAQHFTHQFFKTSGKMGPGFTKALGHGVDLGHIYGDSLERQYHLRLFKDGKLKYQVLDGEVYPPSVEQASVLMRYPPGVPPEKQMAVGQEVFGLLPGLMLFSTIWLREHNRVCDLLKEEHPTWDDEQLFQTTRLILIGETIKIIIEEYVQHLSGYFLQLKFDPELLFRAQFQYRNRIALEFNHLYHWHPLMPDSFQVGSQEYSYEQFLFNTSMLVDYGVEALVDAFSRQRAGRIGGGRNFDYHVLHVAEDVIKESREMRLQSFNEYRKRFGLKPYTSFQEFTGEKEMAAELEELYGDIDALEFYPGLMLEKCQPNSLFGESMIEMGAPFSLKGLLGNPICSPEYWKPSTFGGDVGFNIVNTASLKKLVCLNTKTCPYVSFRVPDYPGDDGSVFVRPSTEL

[4] = tested on: Rat reversed passive Arthus reaction (skin); experiment: Rat reversed passive Arthus reaction (skin) inhibitory activity; type: in vivo, rat (Jcl: SD); conditions: po, orally, read-out: Inhibitory percentage (reversed passive Arthus reaction)
Protocol: Rat Reversed Passive Arthus Reaction (skin) Inhibitory Activity This reaction was-induced by using domestic rabbit anti-egg albumin (EA) antiserum according to the method of Chang and Otterness [Chang, Y. -H. and Otterness, I. G.: Eur. J. Pharmacol. 69, 155 (1981)]. Using six Jcl: SD male rats (7 weeks old, weight about 250 g) per one group, the hair was removed from the back under ether anesthesia, 1 ml of 0.5% EA physiological saline was injected […] into the tail vein, and further each 0.1 ml of diluted antiserum (6 mg protein antibody/ml) was injected in the back on both dexter and sinister sides. […] Acceleration of permeability through the vessel by the reaction was measured by injecting 1 ml of 1% Evans blue physiological saline intravenously at three hours after the induction of the reaction. Then, after 30 minutes, the rat was sacrificed by exsanguination. The skin was peeled off and the area of pigment spot (length×breadth, mm^2) was measured.

[5] = tested on: Rat carrageenin pedal edema; experiment: Rat carrageenin pedal edema inhibitory activity; type: in vivo, rat (Jcl: SD); conditions: Rattus norvegicus, po, 3 h, orally, 3 hours after carrageenin, read-out: Inhibitory percentage (carrageenin pedal edema)
Summary of the method: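 Male Jcl:SD rats (6 weeks, 160-220 g) received test compound orally as a 5% gum arabic suspension, topped up with water to 5 ml/rat. One hour later 0.05 ml of 1% carrageenin was injected subcutaneously into the right hind foot pad. Edema volume was the foot volume increase 3 hours post-injection.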

ICAM-1 = experiment: Adhesion protein expression inhibitory activity, ICAM-1; type: cell-based; conditions: human umbilical vascular endothelial cells, TNF-α, 360 min
Protocol: (§1) Adhesion Protein Expression Inhibitory Activity The various concentrations of test compounds were added to the human umbilical cord-derived vascular endothelial cells [sold by Klabo] which were seeded in the gelatin coat plate and the mixture was incubated at 37° C. for 15 minutes. Then, the human tumor necrosis factor-α[TNF-α; sold by Genzyme] was added therein to the final concentration of 1 ng/ml and incubation was carried out at 37° C. for 3 hours for expression of ELAM-1 and for 6 hours for that of ICAM-I. After the reaction, the cells were fixed using glutaraldhyde and the expression amount of ELAM-1 and ICAM-1 was measured by the cell-ELISA method. That is, the expression was determined by […] the adhesion proteins on the cells in the system using anti-ELAM-1 antibody BBA-2 and anti-ICAM-1 antibody BBA4 as the first antibody as well as horseradish peroxidase-labeled rabbit anti-mouse IgG antibody as the second antibody.

[6] = tested on: PAF induced respiratory tract constriction; experiment: PAF induced respiratory tract constriction inhibitory activity; type: in vivo, guinea pig (Hartley); conditions: intravenously
Source text: PAF Induced Respiratory Tract Constriction Inhibitory Activity Male and female Hartley guinea pigs, weighing about 100 g, were used. The guinea pigs were fixed at a dorsal position under urethane anethesia (1.5 g/kg, i.p.). One leg of a cannula (having four legs) was inserted in the trachea and two of the other three legs were bound to the respirator (Harvard apparatus rodent respirator). The remaining one leg (side branch) was bound to the bronchospasm transducer 7.020 (Ugobasile). Under the conditions of 5 to 7 ml of air supply/time, 70 times/min. of supply time and 10 cm H2 O of pulmonary pressure load, the amount of over flow air was recorded on a Rectigraph (Rectigraph-8S, Saneissoki) via the transducer. After Gallamine […] treatment (1 mg/kg, i.v.), PAF was administered intravenously (1.0 μg/kg) and the maximum respiratory tract constriction response was observed after 30 seconds. Under these conditions, the inhibitory activity of the test compounds were examined.

ELAM-1 = experiment: Adhesion protein expression inhibitory activity, ELAM-1; type: cell-based; conditions: 13 μM, human umbilical vascular endothelial cells, TNF-α; 180 min
Protocol: as §1

[7] = tested on: Mouse acetic acid writhing; experiment: Mouse acetic acid writhing inhibitory activity; type: in vivo, mouse (Slc: ICR); conditions: Mus musculus, po, 20 min, orally, read-out: Inhibitory percentage (acetic acid writhing)
Protocol: Mouse Acetic Acid Writhing Inhibitory Activity
Ten male Slc: ICR mice, 4 weeks old, per 1 group were used. A test compound was administered orally, and after 30 minutes, 0.1 ml/10 g body weight of physiological saline containing 0.6% acetic acid was injected intraperitoneally. For 20 minutes, writhing (in agony condition) response by administration of acetic acid was counted regarding individual animals. The inhibitory percentage relative to the mean response counts of a control group was calculated regarding respective animals in a test compound administration group. The test compound was suspended in 5% gum arabic solution, and the administration volume was 0.2 ml/10 g.

[8] = tested on: brewer's yeast inflamed rat hind limb foot pad pain threshold; experiment: Pain relief test by Randall Celit method; type: in vivo; conditions: orally
Protocol: Pain Relief Test By Randall Celit Method
Seven to eight male Jcl: […] rats, 5 weeks old, per one group were used. 0.1 ml of 10% brewer's yeast physiological saline suspension was injected subcutaneously in the rat dexter hind limb foot pad to induce inflammation. After three hours, the pain threshold was measured by pressure stimulating pain relief measuring apparatus manufactured by Ugo Basile Company (Cat. No. 7200) using an index of […] pain reflex in the inflammatory limb (dexter hind limb), and this was taken as response threshold value in the inflammatory limb. A test compound was administered after additional 45 minutes orally, and the threshold was measured after one and two hours. The efficacy was determined by comparing threshold of a control group and that of the test compound group. The test compound was suspended in 5% gum arabic solution and the administration volume was 0.5 ml/100 g.

Compound	Antipyretic activity, peak time ([1]; 50 mg/kg)	Antipyretic activity, .increment. °C. ([1]; 50 mg/kg)	inhibition at 1 µM [2]	inhibition at 10 µM [2]	inhibition in vivo at 50 mg/kg [5]	Inhibitory activity (PAF induced respiratory tract constriction) ([6]; 3 mg/kg)	inhibition in vivo at 50 mg/kg [7]	also measured
CC(C)(C)c1ccc(C(=O)NCCCSc2ccncc2)cc1 [Example 32, 4-[3-(4-t-butylbenzoylamino)propylthio]pyridine hydrochloride]	1 h	-1.39 °C	43%	37%	–	–	–	inhibition in vivo at 50 mg/kg [3]: 63%; IC50 (cyclooxygenase): 6.5 µM; inhibition in vivo at 50 mg/kg [4]: 41%
O=C1c2ccccc2C(=O)N1CSc1ccncc1 [Example 62, 4-(phthalimidomethylthio)pyridine]	4 h	-1.40 °C	–	–	36%	–	–	inhibition in vivo at 50 mg/kg [3]: 55%; inhibition in vivo at 50 mg/kg [4]: 27%; inhibition in vivo at 12.5 mg/kg ([5]; 12.5 mg/kg): 20%
O=c1c2ccccc2oc(=S)n1CCCSc1ccncc1 [Example 141, 3-[3-(4-pyridylthio)propyl]-2H-1,3-benzoxadine-2-thion-4(3H)-one]	3 h	-2.40 °C	-21%	64%	36%	51.7%	–	Antipyretic activity, peak time ([1]; 12.5 mg/kg): 3 h; Antipyretic activity, .increment. °C. ([1]; 12.5 mg/kg): -1.60 °C; Expression Inhibitory Potency, ICAM-1 (ICAM-1; 3 μM): 21%; Expression Inhibitory Potency, ICAM-1 (ICAM-1; 30 μM): 54%
O=c1c2ccccc2n(CCCCSc2ccncc2)c(=O)n1CCCCSc1ccncc1 [Example 147, 1,3-bis[4-(4-pyridylthio)butyl]quinazolin-2,4(1H,3H)-dione]	–	–	9%	72%	–	50.7%	46%	Expression Inhibitory Potency, ELAM-1 (ELAM-1): 96%; Expression Inhibitory Potency, ICAM-1 (ICAM-1; 13 μM): 83%; IC50 (cyclooxygenase): 1.8 µM
O=c1c2ccccc2oc(=S)n1CCCCSc1ccncc1 [Example 162, 3-[4-(4-pyridylthio)butyl]-2H-1,3-benzoxadine-2-thion-4(3H)-on]	–	–	-31%	-54%	34%	39.8%	–	–
O=C1CSC(=O)N1CSc1ccncc1 [Example 169, 4-(2,4-thiazolidinedionemethylthio)pyridine]	2 h	-2.43 °C	–	–	44%	–	96%	% Of Control (pain threshold) ([8]; 50 mg/kg, 1 hour): 215.2 ± 16.1 % Of Control; % Of Control (pain threshold) ([8]; 50 mg/kg, 2 hours): 158.4 ± 26.2 % Of Control; % Of Control (pain threshold) ([8]; 200 mg/kg, 1 hour): 242 ± 21.9 % Of Control; % Of Control (pain threshold) ([8]; 200 mg/kg, 2 hours): 326.1 ± 80.1 % Of Control; Antipyretic activity, peak time ([1]; 12.5 mg/kg): 2 h; Antipyretic activity, .increment. °C. ([1]; 12.5 mg/kg): -2.13 °C
CC1(C)OC(=O)N(CSc2ccncc2)C1=O [Example 173, 4-(5,5-dimethyloxazolidine-2,4-dione)methylthiopyridine]	2 h	-2.02 °C	–	–	23%	–	75%	% Of Control (pain threshold) ([8]; 200 mg/kg, 1 hour): 222.7 ± 26.4 % Of Control; % Of Control (pain threshold) ([8]; 200 mg/kg, 2 hours): 165.8 ± 24.9 % Of Control; Expression Inhibitory Potency, ICAM-1 (ICAM-1; 30 μM): 35%
Cl.Cl.O=c1c2ccccc2n(CSc2ccncc2)c(=O)n1CCCCSc1ccncc1 [Example 199, 1-(4-pyridylthio)methyl-3-[4-(4-pyridylthio)butyl]quinazoline-2,4(1H,3H)-dione dihydrochloride]	–	–	–	–	–	53.5%	–	–
Cl.Cl.O=c1c2ccccc2n(CCCCSc2ccncc2)c(=S)n1CCCCSc1ccncc1 [Example 200, 1,3-bis[4-(4-pyridylthio)butyl]quinazoline-2(1H)-thion-4(3H)-one dihydrochloride]	–	–	–	–	–	–	–	Expression Inhibitory Potency, ELAM-1 (ELAM-1): 71%; Expression Inhibitory Potency, ICAM-1 (ICAM-1; 13 μM): 83%; Inhibitory activity (PAF induced respiratory tract constriction) ([6]; 10 mg/kg): 61.4%
CCC(=O)N(CCCCSc1ccncc1)c1ccccc1N(CCCCSc1ccncc1)C(=O)CC.Cl.Cl [Example 203, 1,2-bis[N-[4-(4-pyridylthio)butyl]-N-propionylamino]benzene dihydrochloride]	–	–	–	–	–	–	–	Inhibitory activity (PAF induced respiratory tract constriction) ([6]; 0.3 mg/kg): 90.4%
